Here are results for two compounds from patent US20180171411A1, “GFRalpha1 AS A BIOMARKER FOR CISPLATIN-INDUCED CHEMORESISTANCE AND METASTASIS” (THE BOARD OF REGENTS OF THE UNIVERSITY OF TEXAS SYSTEM, priority 2015, published 2018).

One experiment deals with MG-63 cells. Description: Acridine orange staining of acidic vesicular organelles (AVOs). It is filed as cell-based, human. Conditions: control MG-63 cells; cisplatin 20 μM, 24 hr. Here is the method:
(§1) FIG. 3. GFRα1-induced autophagy enhances the chemoresistance of osteosarcoma cells induced by cisplatin. (a) Control and GFRα1-deficient MG-63 cells were transiently transfected with a mRFP-GFP tandem fluorescent-tagged LC3 (mRFP-GFP-LC3) vector and then treated with cisplatin (20μM) for 24 hr. Left, representative images of RFP-LC3 and GFP-LC3 puncta. Scale bar, 20 μm. Right, quantitative analysis of the number of yellow puncta and the number of RFP-LC3 puncta in the combined images. The values are represented as a mean±s.d.m. (n=3). ** denotes p<0.05 by t-test. (b) Control and GFRα1-deficient MG-63 cells were treated with cisplatin (20 μM) for 24 hr and then stained with acridine orange. […] Bottom, quantitative analysis of the number of AVOs. […] (c) Control and GFRα1-deficient MG-63 cells were treated with cisplatin (20 μM) for 24 hr and then analyzed by TEM. Top, representative images of autophagic vacuoles (yellow arrows) detected after cisplatin treatment in control MG-63 cells. […] Bottom, quantitative analysis of the number of autophagic vacuoles. […] (e) Quantitative analysis of the number of yellow puncta and the number of RFP-LC3 puncta in control and GFRα1-overexpressing MG-63 cells. […] Bottom, quantitative analysis of the number of AVOs. […] (h) Control and GFRα1-overexpressing MG-63 cells were treated with cisplatin (20 μM) for 24 hr and then analyzed by TEM. […]

In experiment [1] the test system is LC3-II in GFRα1-overexpressing MG-63 cells. The experiment is described as follows: Immunoblot of LC3-II in GFRα1-overexpressing cells. Type of experiment: cell-based, human. Conditions: 3-MA (10 μM) or Baf (100 nM). The method, then: as §1
For orientation: In western blotting, separated proteins are transferred to a membrane and probed.

Each structure is given as a SMILES string.

As to `N.N.[Cl][Pt][Cl]` [cisplatin, Cis-Diamineplatinum(II) dichloride], in the experiment on MG-63 cells, the AVO-positive cells entry is “significantly increased”.

On to `Cn1cnc(N)c2ncnc1-2` [3-MA, 3-methyladenine], for which the “level of LC3-II expression” value in experiment [1] is listed as “reduced”.
